How the values of series [1] were obtained: During the period of observation, vital signs (blood pressure and pulse) and symptoms were continuously recorded. The protocol was such that if the blood pressure dropped by more than 20 mm Hg systolic or diastolic or the pulse increased by more than 30 beats per minute for 2 minutes, intravenous saline was to be administered and the study terminated.

For series [2] the following is noted: in vivo; cited from earlier work.
In series [3] the test system is contractions in the antrum. The following applies: doses as high as 2 mg; cited from earlier work.
The conditions of series [4]: dose dependent side effects; cited from earlier work.
Series [5] concerns opossum duodenum. The following applies: cited from earlier work.
Series [6] concerns antroduodenal activity. The following applies: 1 mg i.v. followed by 2 mg IV over 2 hours; cited from earlier work.
For series [7], the system named is gastroduodenal motility. To be noted: reduction in gastroduodenal motility, dose-dependent; cited from earlier work.
The mark [8] stands for this setting: first patient, initial dose of 5 ng VIP per kg.

Read-outs that look alike come from different tables or passages of the source.

Regarding `CC[C@H](C)[C@H](NC(=O)[C@H](CO)NC(=O)[C@H](CC(N)=O)NC(=O)[C@H](CC(C)C)NC(=O)[C@H](Cc1ccc(O)cc1)NC(=O)[C@H](CCCCN)NC(=O)[C@H](CCCCN)NC(=O)[C@@H](NC(=O)[C@H](C)NC(=O)[C@H](CCSC)NC(=O)[C@H](CCC(N)=O)NC(=O)[C@H](CCCCN)NC(=O)[C@H](CCCN=C(N)N)NC(=O)[C@H](CC(C)C)NC(=O)[C@H](CCCN=C(N)N)NC(=O)[C@@H](NC(=O)[C@H](Cc1ccc(O)cc1)NC(=O)[C@H](CC(N)=O)NC(=O)[C@H](CC(=O)O)NC(=O)[C@@H](NC(=O)[C@H](Cc1ccccc1)NC(=O)[C@@H](NC(=O)[C@H](C)NC(=O)[C@H](CC(=O)O)NC(=O)[C@H](CO)NC(=O)[C@@H](N)Cc1c[nH]cn1)C(C)C)[C@@H](C)O)[C@@H](C)O)C(C)C)C(=O)N[C@@H](CC(C)C)C(=O)N[C@@H](CC(N)=O)C(N)=O` [VIP, vasoactive intestinal peptide], in series [1] (first patient, higher dose level (20 ng/kg)), the “effects on blood pressure and pulse” value is “not seen”. Further, in series [1] (setting [8]), the pulse entry is “increase” and the systolic pressure entry is on record as “slight decrease”. The blood pressure result in series [1] (second patient, 5 and 20 ng/kg of bodyweight) is recorded as “no significant effect”. For the same compound, the “blood pressure or pulse” value in series [1] (second patient, any of the dosages tested) is reported as “no significant change”. Moreover, the “blood pressure or pulse” value in series [1] (third patient, any dose of VIP administered) is given as “no significant change”. The “adverse reactions such as nausea or vomiting” value in series [1] (three patients studied) was “None of the three patients studied experienced any adverse reactions”.
With glucagon, the colonoscopic evaluation entry in series [2] was “does not facilitate”. Besides, in series [3], the “contractions in the antrum” value was “does not reduce contractions”. The “dose at which nausea and vomiting can appear” value in series [4] is given as 1 mg. In addition, in series [5], the effect on duodenum result was “stimulated relaxation”. Also, in series [6], the “cycle length and time between contractile activity in the duodenum” value is “significantly increased”; the mean pressure period entry is “decreased”. In addition, the minimally effective dose in series [7] is 0.5 mg.

The values above are taken from patent publication EP0631503B1, “USE OF VASOACTIVE INTESTINAL PEPTIDE (VIP) TO INDUCE TEMPORARY PARALYSIS OF THE GASTROINTESTINAL TRACT” (KORMAN, Louis Y., priority 1991, dated 2001).
